Target: ATP-dependent translocase ABCB1 (Homo sapiens, UniProt P08183)
Assay: TP_TRANSPORTER: inhibition of DNR efflux (DNR: ? uM) in MDR1-expressing NIH3T3 cells
Format: functional, cell-based

ATP-dependent translocase ABCB1, sequence (P08183 whole entry): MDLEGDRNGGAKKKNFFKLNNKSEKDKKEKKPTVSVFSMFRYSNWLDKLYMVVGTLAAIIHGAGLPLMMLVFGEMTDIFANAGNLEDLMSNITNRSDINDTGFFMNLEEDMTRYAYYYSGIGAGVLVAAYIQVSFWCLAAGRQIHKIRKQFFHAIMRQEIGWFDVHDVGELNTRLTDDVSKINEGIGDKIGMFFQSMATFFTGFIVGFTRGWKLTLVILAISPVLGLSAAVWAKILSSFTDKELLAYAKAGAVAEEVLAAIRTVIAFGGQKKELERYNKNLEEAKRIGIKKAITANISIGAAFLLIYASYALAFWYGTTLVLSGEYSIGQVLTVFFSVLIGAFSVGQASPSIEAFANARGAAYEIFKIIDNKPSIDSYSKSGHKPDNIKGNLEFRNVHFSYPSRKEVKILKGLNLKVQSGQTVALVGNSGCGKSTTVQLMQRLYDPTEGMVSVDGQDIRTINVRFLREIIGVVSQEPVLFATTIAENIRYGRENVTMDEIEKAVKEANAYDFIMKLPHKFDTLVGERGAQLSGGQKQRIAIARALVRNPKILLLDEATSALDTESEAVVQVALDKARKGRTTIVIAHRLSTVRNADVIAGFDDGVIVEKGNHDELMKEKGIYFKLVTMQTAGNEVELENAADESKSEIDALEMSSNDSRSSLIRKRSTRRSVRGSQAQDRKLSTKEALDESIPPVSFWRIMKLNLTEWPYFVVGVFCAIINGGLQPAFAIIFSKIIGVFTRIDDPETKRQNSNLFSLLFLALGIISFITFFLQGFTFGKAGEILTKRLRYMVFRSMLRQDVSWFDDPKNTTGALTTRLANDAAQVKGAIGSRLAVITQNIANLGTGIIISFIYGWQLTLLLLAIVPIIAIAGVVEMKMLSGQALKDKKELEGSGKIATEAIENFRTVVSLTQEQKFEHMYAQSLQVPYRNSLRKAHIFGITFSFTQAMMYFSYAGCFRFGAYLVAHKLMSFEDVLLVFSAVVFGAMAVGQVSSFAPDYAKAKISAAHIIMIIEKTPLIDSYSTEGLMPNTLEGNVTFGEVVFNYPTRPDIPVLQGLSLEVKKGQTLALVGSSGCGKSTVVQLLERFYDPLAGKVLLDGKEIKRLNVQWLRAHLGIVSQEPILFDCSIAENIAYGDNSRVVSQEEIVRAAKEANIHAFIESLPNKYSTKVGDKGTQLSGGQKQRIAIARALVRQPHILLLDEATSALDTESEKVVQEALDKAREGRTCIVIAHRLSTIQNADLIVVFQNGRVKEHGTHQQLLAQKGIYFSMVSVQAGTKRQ

NC(=O)N1CCC(CC(=O)N2CCC([C@H]3c4ncc(Br)cc4CCc4cc(Cl)cc(Br)c43)CC2)CC1 [LONAFARNIB] gave an IC50 of 2700 nM.

— ChEMBL document CHEMBL2074570, “The farnesyl protein transferase inhibitor SCH66336 is a potent inhibitor of MDR1 product P-glycoprotein” (Cancer Res, 2001)
